Results from paper PMC5546122, “Effects of Fungicides on Rat's Neurosteroid Synthetic Enzymes” (BioMed Research International, 2017).
Where two headings read alike, the source gives them in different places.

Tests used:
[1] = molecular target: T1, 3α-HSD (3α-hydroxysteroid dehydrogenase; AKR1C14) (Rattus norvegicus, UniProt P23457); assay: radiometric TLC enzyme assay, transfected COS-1 cytosol; format: biochemical
T1 construct: gene Akr1c9; Akr1c14 in pRc/CMV, transient expression in COS-1 cells, cytosolic fraction
T1 sequence (P23457 1-322): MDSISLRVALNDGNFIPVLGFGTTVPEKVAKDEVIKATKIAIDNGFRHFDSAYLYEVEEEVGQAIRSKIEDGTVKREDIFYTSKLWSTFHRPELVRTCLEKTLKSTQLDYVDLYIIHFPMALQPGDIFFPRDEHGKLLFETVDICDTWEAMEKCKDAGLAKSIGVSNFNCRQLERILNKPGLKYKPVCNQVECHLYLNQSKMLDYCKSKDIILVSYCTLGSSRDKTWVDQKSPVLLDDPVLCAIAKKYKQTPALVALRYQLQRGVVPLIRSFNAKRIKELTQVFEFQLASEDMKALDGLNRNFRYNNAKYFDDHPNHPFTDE
Text: radiometric TLC enzyme assay, transfected COS-1 cytosol on 3α-HSD (3α-hydroxysteroid dehydrogenase; AKR1C14)

[2] = molecular target: T2, 5α-Red1 (5α-reductase 1; SRD5A1) (Rattus norvegicus, UniProt P24008); assay: radiometric TLC enzyme assay, transfected COS-1 microsomes; format: biochemical
T2 construct: Srd5a1 in pcDNA1.1, transient expression in COS-1 cells, microsomal fraction
T2 sequence (P24008 1-259): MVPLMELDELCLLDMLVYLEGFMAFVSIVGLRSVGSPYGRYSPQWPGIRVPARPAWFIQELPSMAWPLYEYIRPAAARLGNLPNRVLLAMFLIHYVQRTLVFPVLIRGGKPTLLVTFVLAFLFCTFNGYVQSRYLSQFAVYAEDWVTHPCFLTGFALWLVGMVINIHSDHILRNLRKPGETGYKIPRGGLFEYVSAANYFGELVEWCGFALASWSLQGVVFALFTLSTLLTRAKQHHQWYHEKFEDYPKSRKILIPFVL
Text: radiometric TLC enzyme assay, transfected COS-1 microsomes on 5α-Red1 (5α-reductase 1; SRD5A1)

[3] = molecular target: T3, RDH2 (retinol dehydrogenase 2) (Rattus norvegicus, UniProt P50170); assay: as above; format: biochemical
T3 construct: gene Rdh16; full-length cDNA in pcDNA1.1, transient expression in COS-1 cells, microsomal fraction
T3 sequence (P50170 1-317): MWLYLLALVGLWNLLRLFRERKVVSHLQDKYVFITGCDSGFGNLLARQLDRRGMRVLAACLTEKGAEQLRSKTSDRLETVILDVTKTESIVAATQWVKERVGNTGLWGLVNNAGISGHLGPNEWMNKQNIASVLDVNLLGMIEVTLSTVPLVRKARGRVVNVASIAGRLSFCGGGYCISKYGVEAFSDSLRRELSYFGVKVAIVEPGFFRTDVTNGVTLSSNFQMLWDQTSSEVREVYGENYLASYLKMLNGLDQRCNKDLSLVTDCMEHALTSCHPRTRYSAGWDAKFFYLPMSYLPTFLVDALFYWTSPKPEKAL
Text: radiometric TLC enzyme assay, transfected COS-1 microsomes on RDH2 (retinol dehydrogenase 2)

[4] = molecular target: T3, RDH2 (retinol dehydrogenase 2); assay: as above; format: biochemical; details: read-out: % of control activity at 100 μM
[5] = molecular target: T2, 5α-Red1 (5α-reductase 1; SRD5A1); assay: as above; format: biochemical; details: read-out: % of control activity at 100 μM
[6] = substrate: C[C@]12CC[C@@H](O)C[C@@H]1CC[C@@H]1[C@@H]2CC[C@]2(C)[C@@H](O)CC[C@@H]12; assay: cells, lysate or membranes; details: 0.2 mM NAD+, 0.0315–10 µM DIOL, PBS pH 7.2, radiolabelled tracer
[7] = substrate: C[C@]12CCC(=O)C[C@@H]1CC[C@@H]1[C@@H]2CC[C@]2(C)[C@@H](O)CC[C@@H]12; assay: cells, lysate or membranes; details: 0.2 mM NADPH, 0.0315–10 µM dihydrotestosterone, PBS pH 7.2, radiolabelled tracer
[8] = substrate: C[C@]12CC[C@H]3[C@@H](CCC4=CC(=O)CC[C@@]43C)[C@@H]1CC[C@@H]2O; assay: cells, lysate or membranes; details: 0.2 mM NADPH, 0.0315–10 µM testosterone, PBS pH 7.2, radiolabelled tracer

CC(C)(C)C(O)(CCc1ccc(Cl)cc1)Cn1cncn1 (stereo not drawn) [tebuconazole]
IC50 [1]: ~100 µM
IC50 [2]: 8.67 ± 0.771 µM
IC50 ([3]; read-out: 3α-HSD): > 100 µM

CC(C)(C)C(=O)C(Oc1ccc(Cl)cc1)n1cncn1 (stereo not drawn) [triadimefon]
IC50 [1]: 26.49 ± 0.076 µM
IC50 [2]: 17.39 ± 0.079 µM
IC50 ([3]; read-out: RDH2): > 100 µM

C=CC1(C)OC(=O)N(c2cc(Cl)cc(Cl)c2)C1=O (stereo not drawn) [vinclozolin]
IC50 [1]: ~100 µM
remaining activity at 100 µM [4]: 85.5 ± 2.2%
remaining activity at 100 µM [5]: 74.2 ± 5.57%

B1: RDH2 (retinol dehydrogenase 2) (Rattus norvegicus) (protein)
chain: MWLYLLALVGLWNLLRLFRERKVVSHLQDKYVFITGCDSGFGNLLARQLDRRGMRVLAACLTEKGAEQLRSKTSDRLETVILDVTKTESIVAATQWVKERVGNTGLWGLVNNAGISGHLGPNEWMNKQNIASVLDVNLLGMIEVTLSTVPLVRKARGRVVNVASIAGRLSFCGGGYCISKYGVEAFSDSLRRELSYFGVKVAIVEPGFFRTDVTNGVTLSSNFQMLWDQTSSEVREVYGENYLASYLKMLNGLDQRCNKDLSLVTDCMEHALTSCHPRTRYSAGWDAKFFYLPMSYLPTFLVDALFYWTSPKPEKAL
Km [6]: 2.850 ± 0.037 µM
Vmax [6]: 0.00053 µmol/min/mg

B2: 3α-HSD (3α-hydroxysteroid dehydrogenase; AKR1C14) (Rattus norvegicus) (protein)
chain: MDSISLRVALNDGNFIPVLGFGTTVPEKVAKDEVIKATKIAIDNGFRHFDSAYLYEVEEEVGQAIRSKIEDGTVKREDIFYTSKLWSTFHRPELVRTCLEKTLKSTQLDYVDLYIIHFPMALQPGDIFFPRDEHGKLLFETVDICDTWEAMEKCKDAGLAKSIGVSNFNCRQLERILNKPGLKYKPVCNQVECHLYLNQSKMLDYCKSKDIILVSYCTLGSSRDKTWVDQKSPVLLDDPVLCAIAKKYKQTPALVALRYQLQRGVVPLIRSFNAKRIKELTQVFEFQLASEDMKALDGLNRNFRYNNAKYFDDHPNHPFTDE
Km [7]: 3.148 ± 0.197 µM
Vmax [7]: 6.67e-05 µmol/min/mg

B3: 5α-Red1 (5α-reductase 1; SRD5A1) (Rattus norvegicus) (protein)
chain: MVPLMELDELCLLDMLVYLEGFMAFVSIVGLRSVGSPYGRYSPQWPGIRVPARPAWFIQELPSMAWPLYEYIRPAAARLGNLPNRVLLAMFLIHYVQRTLVFPVLIRGGKPTLLVTFVLAFLFCTFNGYVQSRYLSQFAVYAEDWVTHPCFLTGFALWLVGMVINIHSDHILRNLRKPGETGYKIPRGGLFEYVSAANYFGELVEWCGFALASWSLQGVVFALFTLSTLLTRAKQHHQWYHEKFEDYPKSRKILIPFVL
Km [8]: 1.397 ± 0.35 µM
Vmax [8]: 3.49e-06 µmol/min/mg
